Results reported in patent publication US9695155B2, “Herbicidal substituted pyrimidinyloxy benzene compounds” (E. I. DU PONT DE NEMOURS AND COMPANY, priority 2013, dated 2017).

Key:
large (Lg) crabgrass [1] = assay: Test A preemergence; format: in vivo, Digitaria sanguinalis; conditions: 0 to 100 scale where 0 is no effect and 100 is complete control; for Plant response rating, Crabgrass, Large: 125 g ai/ha; for Crabgrass, Large plant response rating: 500 g ai/ha
In short: (§1)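 Scoring: eye-based comparison with untreated controls, 0 for no effect through 100 for complete control, at about day 10. Treatments: directed soil spray preemergence; foliar spray postemergence on 2–10 cm plants at the one- to two-leaf stage. Medium: loam soil with sand.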

giant foxtail [2] = assay: Test A preemergence; format: in vivo, Setaria faberii; conditions: 0 to 100 scale where 0 is no effect and 100 is complete control; for Plant response rating, Foxtail, Giant: 125 g ai/ha; for Foxtail, Giant plant response rating: 500 g ai/ha
In short: as §1

morningglory [3] = assay: Test A preemergence; format: in vivo, Ipomoea spp.; conditions: for Morningglory plant response rating (0 to 100 scale): 125 g ai/ha; for Morningglory plant response rating: 500 g ai/ha, 0 to 100 scale where 0 is no effect and 100 is complete control
In short: as §1

wheat = assay: Test A preemergence; format: in vivo, Triticum aestivum; conditions: for Wheat plant response rating (0 to 100 scale): 125 g ai/ha; for Wheat plant response rating: 500 g ai/ha, 0 to 100 scale where 0 is no effect and 100 is complete control
In short: as §1

large (Lg) crabgrass [4] = assay: Test A postemergence; format: in vivo, Digitaria sanguinalis; conditions: 0 to 100 scale where 0 is no effect and 100 is complete control; for Crabgrass, Large plant response rating: 125 g ai/ha; for Plant response rating, Crabgrass, Large: 500 g ai/ha
In short: as §1

giant foxtail [5] = assay: Test A postemergence; format: in vivo, Setaria faberii; conditions: 0 to 100 scale where 0 is no effect and 100 is complete control; for Foxtail, Giant plant response rating: 125 g ai/ha; for Plant response rating, Foxtail, Giant: 500 g ai/ha
In short: as §1

velvetleaf = assay: Test A postemergence; format: in vivo, Abutilon theophrasti; conditions: 0 to 100 scale where 0 is no effect and 100 is complete control; for Velvetleaf plant response rating: 125 g ai/ha; for Plant response rating, Velvetleaf: 500 g ai/ha
In short: as §1

corn = assay: Test A postemergence; format: in vivo, Zea mays; conditions: 0 to 100 scale where 0 is no effect and 100 is complete control; for Corn plant response rating: 125 g ai/ha; for Plant response rating, Corn: 500 g ai/ha
In short: as §1

rice = assay: Test B flooded paddy test; format: in vivo, Oryza sativa; conditions: Flood, 250 g ai/ha; 0 to 100 scale where 0 is no effect and 100 is complete control
In short: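 Evaluation is visual, against untreated controls, 13 to 15 days after treatment. Before treatment, plants reached the 2-leaf stage; pots were then flooded 3 cm deep, compound was added to the water, and that level was maintained. Ratings run 0 to 100, with 100 meaning complete control.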

Italian ryegrass = assay: Test C postemergence; format: in vivo, Lolium multiflorum; conditions: for Plant response rating (0 to 100), Ryegrass, Italian: 0 is no effect, 100 is complete control; for Ryegrass, Italian plant response rating: 31 g ai/ha, 13 to 15 days; for Ryegrass, Italian plant response rating / Plant response rating, Ryegrass, Italian: scale 0 to 100 (0 no effect, 100 complete control)
In short: (§2)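 Plants were kept under greenhouse conditions for 13–15 days following spray. Pre-emergent application went to soil (loam–sand), post-emergent to foliage at 1–4 leaves. Evaluation: visual, percent control against untreated checks.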

morningglory [6] = assay: Test C postemergence; format: in vivo, Ipomoea coccinea; conditions: for Plant response rating (0 to 100), Morningglory: 0 is no effect, 100 is complete control; for Morningglory plant response rating: 31 g ai/ha, 13 to 15 days; for Morningglory plant response rating / Plant response rating, Morningglory: scale 0 to 100 (0 no effect, 100 complete control)
In short: as §2

yellow nutsedge = assay: Test C postemergence; format: in vivo, Cyperus esculentus; conditions: for Plant response rating (0 to 100), Nutsedge, Yellow: 0 is no effect, 100 is complete control; for Nutsedge, Yellow plant response rating: 31 g ai/ha, 13 to 15 days; for Nutsedge, Yellow plant response rating / Plant response rating, Nutsedge, Yellow: scale 0 to 100 (0 no effect, 100 complete control)
In short: as §2

pigweed = assay: Test C postemergence; format: in vivo, Amaranthus retroflexus; conditions: for Plant response rating (0 to 100), Pigweed: 0 is no effect, 100 is complete control; for Pigweed plant response rating: 31 g ai/ha, 13 to 15 days; for Pigweed plant response rating / Plant response rating, Pigweed: scale 0 to 100 (0 no effect, 100 complete control)
In short: as §2

kochia = assay: Test C postemergence; format: in vivo, Kochia scoparia; conditions: for Plant response rating (0 to 100), Kochia: 0 is no effect, 100 is complete control; for Kochia plant response rating: 31 g ai/ha, 13 to 15 days; for Kochia plant response rating / Plant response rating, Kochia: scale 0 to 100 (0 no effect, 100 complete control)
In short: as §2

wild oat = assay: Test C postemergence; format: in vivo, Avena fatua; conditions: for Plant response rating (0 to 100), Oat, Wild: 0 is no effect, 100 is complete control; for Oat, Wild plant response rating: 31 g ai/ha, 13 to 15 days; for Oat, Wild plant response rating / Plant response rating, Oat, Wild: scale 0 to 100 (0 no effect, 100 complete control)
In short: as §2

[7] = 125 g ai/ha, postemergence, visual rating

Fc1cccc(Oc2ncc(Cl)cn2)c1-n1cc(Cl)cn1 [Compound 177]
50: Wheat plant response rating (wheat)
15: Plant response rating, Rice (rice)
100: Plant response rating, Crabgrass, Large (large (Lg) crabgrass [1]) | Crabgrass, Large plant response rating (large (Lg) crabgrass [1]) | Plant response rating, Foxtail, Giant (giant foxtail [2]) | Foxtail, Giant plant response rating (giant foxtail [2]) | Plant response rating, Crabgrass, Large (large (Lg) crabgrass [4]) | Plant response rating, Foxtail, Giant (giant foxtail [5]) | Velvetleaf plant response rating (velvetleaf) | Plant response rating, Velvetleaf (velvetleaf)
10: Morningglory plant response rating (morningglory [6]; postemergence, visual rating) | Plant response rating, Nutsedge, Yellow (yellow nutsedge; [7]) | Plant response rating, Oat, Wild (wild oat; Postemergence, 62 g ai/ha)
95: Plant response rating, Pigweed (pigweed; [7]) | Plant response rating, Kochia (kochia; [7])
5: Nutsedge, Yellow plant response rating (yellow nutsedge; postemergence, visual rating) | Plant response rating, Nutsedge, Yellow (yellow nutsedge; Postemergence, 62 g ai/ha) | Plant response rating (0 to 100), Oat, Wild (wild oat; 16 g ai/ha, postemergence)
30: Plant response rating, Oat, Wild (wild oat; [7])
90: Plant response rating, Kochia (kochia; Postemergence, 62 g ai/ha)
40: Corn plant response rating (corn)
80: Morningglory plant response rating (morningglory [3]) | Crabgrass, Large plant response rating (large (Lg) crabgrass [4]) | Foxtail, Giant plant response rating (giant foxtail [5]) | Plant response rating, Morningglory (morningglory [6]; Postemergence, 62 g ai/ha) | Pigweed plant response rating (pigweed; postemergence, visual rating)
0: Wheat plant response rating (0 to 100 scale) (wheat) | Plant response rating (0 to 100), Ryegrass, Italian (Italian ryegrass; 16 g ai/ha, postemergence) | Ryegrass, Italian plant response rating (Italian ryegrass; postemergence, visual rating) | Plant response rating, Ryegrass, Italian (Italian ryegrass; [7]) | Plant response rating, Ryegrass, Italian (Italian ryegrass; Postemergence, 62 g ai/ha) | Plant response rating (0 to 100), Nutsedge, Yellow (yellow nutsedge; 16 g ai/ha, postemergence) | Oat, Wild plant response rating (wild oat; postemergence, visual rating)
85: Plant response rating, Morningglory (morningglory [6]; [7]) | Plant response rating, Pigweed (pigweed; Postemergence, 62 g ai/ha)
75: Plant response rating (0 to 100), Pigweed (pigweed; 16 g ai/ha, postemergence)
20: Morningglory plant response rating (0 to 100 scale) (morningglory [3]) | Plant response rating (0 to 100), Morningglory (morningglory [6]; 16 g ai/ha, postemergence)
70: Plant response rating, Corn (corn) | Plant response rating (0 to 100), Kochia (kochia; 16 g ai/ha, postemergence) | Kochia plant response rating (kochia; postemergence, visual rating)

O=Cc1cccc(Oc2ncc(I)cn2)c1-n1cc(Br)cn1 [Compound 172]
5: Plant response rating, Ryegrass, Italian (Italian ryegrass; Postemergence, 62 g ai/ha) | Nutsedge, Yellow plant response rating (yellow nutsedge; postemergence, visual rating) | Plant response rating, Nutsedge, Yellow (yellow nutsedge; Postemergence, 62 g ai/ha) | Plant response rating (0 to 100), Pigweed (pigweed; 8 g ai/ha, postemergence) | Plant response rating, Pigweed (pigweed; Postemergence, 62 g ai/ha)
30: Crabgrass, Large plant response rating (large (Lg) crabgrass [1]) | Plant response rating, Crabgrass, Large (large (Lg) crabgrass [4]) | Plant response rating, Kochia (kochia; Postemergence, 62 g ai/ha)
10: Plant response rating, Morningglory (morningglory [6]; Postemergence, 62 g ai/ha) | Plant response rating (0 to 100), Pigweed (pigweed; 16 g ai/ha, postemergence) | Pigweed plant response rating (pigweed; postemergence, visual rating)
100: Plant response rating, Velvetleaf (velvetleaf)
20: Crabgrass, Large plant response rating (large (Lg) crabgrass [4]) | Plant response rating, Foxtail, Giant (giant foxtail [5]) | Plant response rating, Corn (corn) | Morningglory plant response rating (morningglory [6]; postemergence, visual rating)
90: Velvetleaf plant response rating (velvetleaf)
0: Plant response rating, Crabgrass, Large (large (Lg) crabgrass [1]) | Plant response rating, Foxtail, Giant (giant foxtail [2]) | Foxtail, Giant plant response rating (giant foxtail [2]) | Morningglory plant response rating (0 to 100 scale) (morningglory [3]) | Morningglory plant response rating (morningglory [3]) | Wheat plant response rating (0 to 100 scale) (wheat) | Wheat plant response rating (wheat) | Foxtail, Giant plant response rating (giant foxtail [5]) | Corn plant response rating (corn) | Plant response rating, Rice (rice) | Plant response rating (0 to 100), Ryegrass, Italian (Italian ryegrass; 8 g ai/ha, postemergence) | Plant response rating (0 to 100), Ryegrass, Italian (Italian ryegrass; 16 g ai/ha, postemergence) | Ryegrass, Italian plant response rating (Italian ryegrass; postemergence, visual rating) | Plant response rating (0 to 100), Morningglory (morningglory [6]; 8 g ai/ha, postemergence) | Plant response rating (0 to 100), Morningglory (morningglory [6]; 16 g ai/ha, postemergence) | Plant response rating (0 to 100), Nutsedge, Yellow (yellow nutsedge; 8 g ai/ha, postemergence) | Plant response rating (0 to 100), Nutsedge, Yellow (yellow nutsedge; 16 g ai/ha, postemergence) | Plant response rating (0 to 100), Kochia (kochia; 8 g ai/ha, postemergence) | Plant response rating (0 to 100), Kochia (kochia; 16 g ai/ha, postemergence) | Kochia plant response rating (kochia; postemergence, visual rating) | Plant response rating (0 to 100), Oat, Wild (wild oat; 8 g ai/ha, postemergence) | Plant response rating (0 to 100), Oat, Wild (wild oat; 16 g ai/ha, postemergence) | Oat, Wild plant response rating (wild oat; postemergence, visual rating) | Plant response rating, Oat, Wild (wild oat; Postemergence, 62 g ai/ha)
